Experimental data as given in US20190343425A1, “TREATMENT OF A DISEASE OF THE GASTROINTESTINAL TRACT WITH A TNF INHIBITOR” (Progenity, Inc., priority 2016, published 2019).

Test: Tacrolimus tissue pharmacokinetics, oral versus intra-cecal ingestible device delivery
Format: in vivo, Yorkshire-Cross farm swine
Settings: swine; intra-cecally (ingestible device) vs orally administered; FIG. 76
Description: No further randomization procedure was employed.
Animals in Group 1 received an ingestible device containing 0.8 mL of vehicle solution (80% alcohol, 20% HCO-60). Animals in Group 2 received orally […] liquid formulation of tacrolimus at 4 mg/0.8 mL per animal (Prograf: 5 mg/mL). Animals in Group 3 received intra-cecally an ingestible device containing tacrolimus at 1 mg in 0.8 mL per ingestible device. Animals in Group 4 received intra-cecally an ingestible device containing tacrolimus at 2 mg in 0.8 mL per ingestible device. Animals in Group 5 received intra-cecally an ingestible device containing tacrolimus at 4 mg in 0.8 mL per ingestible device. To control for potential confounding effects of the surgery, all groups fast on Day −11 at least 24 hr before being subjected to anesthesia followed by surgical placements of a cecal port by a veterinary surgeon at Day −10. […]
For tissue necropsy, small intestine fluid and cecal fluid were collected separately from all the animals into two separate square plastic bottles, and stored at −20° C. The length and diameter of the cecum and the colon was measured from one animal in each group and recorded for reference. […] All samples were weighed, and the tissue sample weights were recorded. […] Around 3 grams of the total punched sample were collected into a pre-weighed 15-mL conical tube, and the tissue weight was recorded. […]

mean concentration of tacrolimus in the cecum tissue and the proximate colon tissue: higher
SMILES: C=CC[C@@H]1/C=C(\C)C[C@H](C)C[C@H](OC)[C@H]2O[C@@](O)(C(=O)C(=O)N3CCCC[C@H]3C(=O)O[C@H](/C(C)=C/[C@@H]3CC[C@@H](O)[C@H](OC)C3)[C@H](C)[C@@H](O)CC1=O)[C@H](C)C[C@@H]2OC [tacrolimus]
